Reference: patent US10077261B2, “Imidazolin-5-one derivative useful as FASN inhibitors for the treatment of cancer” (Janssen Pharmaceutica NV, priority 2012, dated 2018)

Legend:
A2780 ovarian cells [1] = assay: A2780 ovarian cell proliferation assay in lipid reduced medium, without palmitate (MTT); assay type: cell-based; conditions: Homo sapiens, A2780, 96 h; read-out: pIC50 A2780 Ovarian Cell, Without Palmitate (converted)
A2780 ovarian cells [2] = assay: A2780 ovarian cell proliferation assay in lipid reduced medium, with palmitate (MTT); assay type: cell-based; conditions: Homo sapiens, A2780, 96 h; read-out: pIC50 A2780 Ovarian Cell, With Palmitate (converted)
How it was run: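 In this palmitate-supplemented format, compound dilutions (30 μM down to 0.01 μM) are added to cells in lipid-reduced serum with 25 μM palmitate, 0.2% fatty-acid-free BSA and 0.25% ethanol. After four days (96 h) MTT absorbance at 544 nm is recorded and fitted by minimum sum of squares.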

[3] = biological target: T1, hFASN enzyme (full length) (Homo sapiens, UniProt P49327); assay: Fatty Acid Synthase (FASN) inhibition scintillation proximity assay; assay type: biochemical; conditions: for inhibition at 10 µM: read-out: Human FASN % inhibition @ 10 μM, 10 μM test compound; for IC50: read-out: Human FASN pIC50 (converted)
T1 construct: 10 μL hFASN enzyme (full length, 300 ng, purified in house); made in house
T1 sequence (P49327 whole entry): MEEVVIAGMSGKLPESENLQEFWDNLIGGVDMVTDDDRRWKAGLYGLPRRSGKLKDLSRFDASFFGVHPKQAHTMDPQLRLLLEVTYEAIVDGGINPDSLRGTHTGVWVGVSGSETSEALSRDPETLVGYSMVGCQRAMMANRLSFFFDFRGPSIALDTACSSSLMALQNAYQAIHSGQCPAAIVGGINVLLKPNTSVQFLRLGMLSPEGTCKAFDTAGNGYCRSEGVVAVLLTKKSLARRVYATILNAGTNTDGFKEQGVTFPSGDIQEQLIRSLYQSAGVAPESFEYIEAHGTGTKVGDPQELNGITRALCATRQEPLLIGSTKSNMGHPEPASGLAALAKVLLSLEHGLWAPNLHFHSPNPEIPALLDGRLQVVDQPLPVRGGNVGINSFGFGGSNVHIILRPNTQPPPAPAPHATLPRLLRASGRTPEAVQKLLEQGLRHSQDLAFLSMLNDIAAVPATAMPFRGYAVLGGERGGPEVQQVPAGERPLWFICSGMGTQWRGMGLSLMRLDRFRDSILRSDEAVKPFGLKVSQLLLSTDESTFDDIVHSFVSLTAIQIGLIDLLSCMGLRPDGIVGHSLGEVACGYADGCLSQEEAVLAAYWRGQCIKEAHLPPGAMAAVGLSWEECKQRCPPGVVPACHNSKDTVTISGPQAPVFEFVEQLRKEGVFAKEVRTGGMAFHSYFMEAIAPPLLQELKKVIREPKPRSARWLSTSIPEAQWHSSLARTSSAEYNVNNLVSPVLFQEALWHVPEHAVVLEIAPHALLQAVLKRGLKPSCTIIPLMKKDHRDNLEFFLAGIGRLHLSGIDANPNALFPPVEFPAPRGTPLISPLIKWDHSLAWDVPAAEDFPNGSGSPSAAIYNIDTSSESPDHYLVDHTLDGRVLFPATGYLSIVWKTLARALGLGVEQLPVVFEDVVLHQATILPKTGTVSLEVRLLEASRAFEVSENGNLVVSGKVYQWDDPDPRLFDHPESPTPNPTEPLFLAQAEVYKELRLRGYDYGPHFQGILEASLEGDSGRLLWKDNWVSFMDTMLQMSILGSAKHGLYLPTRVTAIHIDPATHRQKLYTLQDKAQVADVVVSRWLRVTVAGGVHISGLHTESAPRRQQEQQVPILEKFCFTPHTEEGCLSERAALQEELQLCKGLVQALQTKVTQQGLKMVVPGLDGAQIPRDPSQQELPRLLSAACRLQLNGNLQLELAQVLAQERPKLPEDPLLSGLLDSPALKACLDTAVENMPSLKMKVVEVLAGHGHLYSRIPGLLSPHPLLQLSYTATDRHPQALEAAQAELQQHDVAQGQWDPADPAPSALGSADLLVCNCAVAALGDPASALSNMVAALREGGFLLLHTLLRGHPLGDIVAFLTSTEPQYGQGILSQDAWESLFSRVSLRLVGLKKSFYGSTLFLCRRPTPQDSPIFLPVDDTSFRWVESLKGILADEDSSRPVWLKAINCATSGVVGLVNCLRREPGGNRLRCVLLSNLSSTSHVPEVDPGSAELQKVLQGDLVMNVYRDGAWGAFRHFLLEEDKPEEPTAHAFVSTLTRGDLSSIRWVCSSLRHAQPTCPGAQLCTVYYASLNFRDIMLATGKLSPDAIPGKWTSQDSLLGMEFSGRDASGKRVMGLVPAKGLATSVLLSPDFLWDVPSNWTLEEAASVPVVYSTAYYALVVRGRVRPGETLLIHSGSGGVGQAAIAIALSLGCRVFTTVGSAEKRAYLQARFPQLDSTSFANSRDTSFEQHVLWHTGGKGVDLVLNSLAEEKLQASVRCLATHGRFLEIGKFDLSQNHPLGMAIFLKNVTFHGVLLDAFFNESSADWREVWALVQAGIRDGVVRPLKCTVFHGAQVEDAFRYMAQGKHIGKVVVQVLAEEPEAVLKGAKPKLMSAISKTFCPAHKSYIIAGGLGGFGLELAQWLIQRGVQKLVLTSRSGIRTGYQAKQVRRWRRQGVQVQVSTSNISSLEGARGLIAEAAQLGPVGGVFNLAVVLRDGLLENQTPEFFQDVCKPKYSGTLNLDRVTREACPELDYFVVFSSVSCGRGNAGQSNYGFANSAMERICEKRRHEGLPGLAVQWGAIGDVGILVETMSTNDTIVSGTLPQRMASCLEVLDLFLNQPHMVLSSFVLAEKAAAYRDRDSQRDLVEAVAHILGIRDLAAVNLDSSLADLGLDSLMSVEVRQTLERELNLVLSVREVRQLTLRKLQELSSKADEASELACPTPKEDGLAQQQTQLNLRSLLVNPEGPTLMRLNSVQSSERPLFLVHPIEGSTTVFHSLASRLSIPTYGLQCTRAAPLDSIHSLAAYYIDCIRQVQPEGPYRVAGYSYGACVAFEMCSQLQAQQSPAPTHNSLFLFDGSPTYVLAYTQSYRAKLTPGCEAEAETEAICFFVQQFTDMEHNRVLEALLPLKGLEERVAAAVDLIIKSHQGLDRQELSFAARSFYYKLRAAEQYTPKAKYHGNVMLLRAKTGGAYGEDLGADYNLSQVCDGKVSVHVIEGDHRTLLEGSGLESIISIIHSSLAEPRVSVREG
How it was run: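 Proximity read-out: hydrophobic ^3H-palmitate formed from ^3H-acetyl-CoA and malonyl-CoA binds streptavidin imaging beads, imaged at 610±20 nm at least 24 h after stopping. Enzyme was in-house purified full-length hFASN, 300 ng, in pH 7.5 phosphate/DTT buffer; compound series 30 μM down to 0.01 μM, normalized to controls, 4-parameter fit.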

[4] = biological target: Fatty Acid Synthase Keto-reductase Domain (FASN KR) (Homo sapiens, UniProt P49327); assay: Fatty Acid Synthase keto-reductase domain (FASN KR) inhibition, NADPH oxidation at 340 nm
Sequence of Fatty Acid Synthase Keto-reductase Domain (FASN KR) (P49327 whole entry, the tested form may be a part): as the sequence (P49327 whole entry) above
Experimental: After 20 minutes incubation at room temperature the plate was measured again (T2).
The decrease in absorbance was calculated as (Absorbance before incubation T1)−(Absorbance following incubation T2).
A plot of Controlmin versus test compound concentration was fitted to a 4-parameter logistic curve using a non-linear least squares regression method.

Row | Compound | IC50 (A2780 ovarian cells [1]) [µM] | IC50 (A2780 ovarian cells [2]) [µM] | inhibition at 10 µM [3] [%] | IC50 [3] [µM] | IC50 [4] [µM]
1 | N#Cc1ccc(-c2ccc(C3=NC4(CC4)C(=O)N3CC3CN(C(=O)C4CC4)C3)cc2)cc1 [compound 41, 4′-(6-{[1-(Cyclopropylcarbonyl)azetidin-3-yl]methyl}-7-oxo-4,6-diazaspiro[2.4]hept-4-en-5-yl)biphenyl-4-carbonitrile] | 1.2 | > 10 | 92.6 | 0.457 | 0.851
2 | N#Cc1ccc(-c2ccc(C3=NC4(CC4)C(=O)N3C[C@@H]3CCN(C(=O)C4CC4)C3)cc2)cc1 [compound 48, 4′-(6-{[(3R)-1-(Cyclopropylcarbonyl)pyrrolidin-3-yl]methyl}-7-oxo-4,6-diazaspiro[2.4]hept-4-en-5-yl)biphenyl-4-carbonitrile] | 0.182 | > 10 | 108 | 0.0977 | 0.282
3 | O=C(C1CC1)N1CC(CN2C(=O)C3(CC3)N=C2c2ccc(-c3ccc4[nH]ncc4c3)cc2)C1 [compound 51, 6-{[1-(Cyclopropylcarbonyl)azetidin-3-yl]methyl}-5-[4-(1H-indazol-5-yl)phenyl]-4,6-diazaspiro[2.4]hept-4-en-7-one] | 0.123 | > 10 | 102 | 0.0794 | 0.162
4 | O=C(C1CC1)N1CC(CN2C(=O)C3(CC3)N=C2c2ccc(-c3ccc4ocnc4c3)cc2)C1 [compound 52, 5-[4-(1,3-Benzoxazol-5-yl)phenyl]-6-{[1-(cyclopropylcarbonyl)azetidin-3-yl]methyl}-4,6-diazaspiro[2.4]hept-4-en-7-one] | 1.86 | > 10 | 89.9 | 0.759 | 1.78
5 | Cn1cc(-c2ccc(-c3ccc(C4=NC5(CC5)C(=O)N4CC4CCN(C(=O)C5CC5)CC4)cc3)cc2)cn1 [compound 56, 6-{[1-(Cyclopropylcarbonyl)piperidin-4-yl]methyl}-5-[4′-(1-methyl-1H-p;yrazol-4-yl)biphenyl-4-yl]-4,6-diazaspiro[2.4]hept-4-en-7-one] | 1.58 | 6.03 | 89.2 | 0.407 | 1.38
6 | O=C(C1CC1)N1CCC(CN2C(=O)C3(CC3)N=C2c2ccc(-c3ccc4scnc4c3)cc2)CC1 [compound 57, 5-[4-(1,3-Benzothiazol-5-yl)phenyl]-6-{[1-(cyclopropylcarbonyl)piperidin-4-yl]methyl}-4,6-diazaspiro[2.4]hept-4-en-7-one] | 2.51 | > 10 | 88.1 | 0.759 | 1.7
7 | O=C(C1CC1)N1CC(CN2C(=O)C3(CC3)N=C2c2ccc(-c3ccc(-c4cccnc4)cc3)cc2)C1 [compound 60, 6-{[1-(Cyclopropylcarbonyl)azetidin-3-yl]methyl}-5-(4′-pyridin-3-ylbiphenyl-4-yl)-4,6-diazaspiro[2.4]hept-4-en-7-one] | 0.263 | > 10 | 99.4 | 0.0933 | 0.288
8 | O=C(C1CC1)N1CC[C@@H](CN2C(=O)C3(CCN(Cc4ccccc4)CC3)N=C2c2ccc(-c3ccc4[nH]ccc4c3)cc2)C1 [compound 63, (R)-2-(4-(1H-Indol-5-yl)phenyl)-8-benzyl-3-((1-(cyclopropanecarbonyl)pyrrolidin-3-yl)methyl)-1,3,8-triazaspiro[4.5]dec-1-en-4-one] | 0.0759 | > 10 | 115 | 0.0741 | 0.0851
9 | O=C(C1CC1)N1CC[C@@H](CN2C(=O)C3(CCCC3)N=C2c2ccc(-c3cccc4ncccc34)cc2)C1 [compound 66, 3-{[(3R)-1-(Cyclopropylcarbonyl)pyrrolidin-3-yl]methyl}-2-(4-quinolin-5-ylphenyl)-1,3-diazaspiro[4.4]non-1-en-4-one] | 1.1 | > 10 | 106 | 0.0741 | 0.282
10 | O=C(C1CC1)N1CC[C@@H](CN2C(=O)C3(CCCC3)N=C2c2ccc(-c3cccc4cnccc34)cc2)C1 [compound 67, 3-{[(3R)-1-(Cyclopropylcarbonyl)pyrrolidin-3-yl]methyl}-2-(4-isoquinolin-5-ylphenyl)-1,3-diazaspiro[4.4]non-1-en-4-one] | 1.62 | > 10 | 100 | 0.282 | 1.55
11 | O=C(C1CC1)N1CC[C@@H](CN2C(=O)C3(CCCC3)N=C2c2ccc(-c3cccc4[nH]ccc34)cc2)C1 [compound 68, 3-{[(3R)-1-(Cyclopropylcarbonyl)pyrrolidin-3-yl]methyl}-2-[4-(1H-indol-4-yl)phenyl]-1,3-diazaspiro[4.4]non-1-en-4-one] | 0.339 | > 10 | 107 | 0.0631 | 0.162
12 | O=C(C1CC1)N1CC[C@@H](CN2C(=O)C3(CCCC3)N=C2c2ccc(-c3ccc4ccncc4c3)cc2)C1 [compound 69, 3-{[(3R)-1-(Cyclopropylcarbonyl)pyrrolidin-3-yl]methyl}-2-(4-isoquinolin-7-ylphenyl)-1,3-diazaspiro[4.4]non-1-en-4-one] | 1.15 | > 10 | 100 | 0.224 | 0.851
13 | O=C(C1CC1)N1CC[C@@H](CN2C(=O)C3(CCCC3)N=C2c2ccc(-c3cccc(-c4cc[nH]n4)c3)cc2)C1 [compound 70, 3-{[(3R)-1-(Cyclopropylcarbonyl)pyrrrolidin-3-yl]methyl}-2-[3′-(1H-pyrazol-3-yl)biphenyl-4-yl]-1,3-diazaspiro[4.4]non-1-en-4-one] | ~2.4 | > 10 | 92.5 | 0.537 | 1.35
14 | Cc1cc(-c2ccc3occc3c2)ccc1C1=NC2(CCCC2)C(=O)N1C[C@@H]1CCN(C(=O)C2CC2)C1 [compound 72, 2-[4-(1-Benzofuran-5-yl)-2-methylphenyl]-3-{[(3R)-1-(cyclopropylcarbonyl)pyrrolidin-3-yl]methyl}-1,3-diazaspiro[4.4]non-1-en-4-one] | 1.38 | > 10 | 106 | 0.0479 | 0.174
15 | Cc1cc(-c2ccc3[nH]ccc3c2)ccc1C1=NC2(CCCC2)C(=O)N1C[C@@H]1CCN(C(=O)C2CC2)C1 [compound 73, 3-{[(3R)-1-(Cyclopropylcarbonyl)pyrrolidin-3-yl]methyl}-2-[4-(1H-indol-5-yl)-2-methylphenyl]-1,3-diazaspiro[4.4]non-1-en-4-one] | ~0.0288 | > 10 | 111 | 0.0331 | 0.0646
16 | Cc1cc(-c2ccc3cnccc3c2)ccc1C1=NC2(CCCC2)C(=O)N1C[C@@H]1CCN(C(=O)C2CC2)C1 [compound 74, 3-{[(3R)-1-(cyclopropylcarbonyl)pyrrolidin-3-yl]methyl}-2-(4-isoquinolin-6-yl-2-methylphenyl)-1,3-diazaspiro[4.4]non-1-en-4-one] | 0.00871 | > 10 | 114 | 0.0224 | 0.0603
